This note sets out measurements from ChEMBL document CHEMBL1137799, “Bisbenzylisoquinoline alkaloids” (J Nat Prod, 1991).

Converted amounts (≈) assume the structure as drawn.

A short description of data set [1]: Protein binding in Wistar rat serum at 5 mg/kg, iv and po. It counts as ADME, organism-based. Details: dose 5 mg/kg, route oral. The note with it: read-out: PB (converted).
Data set [2] is described as follows: Half life in Wistar rat testis at 5 mg/kg, iv and po. The class given is ADME, organism-based. Also on record: dose 5 mg/kg, route oral.
Data set [3] is described as follows: Half life in Wistar rat at 5 mg/kg, iv and po. The class given is ADME, organism-based. Also on record: dose 5 mg/kg, route oral. The settings on record: in vivo.
Data set [4] in a line: Drug absorption in digestive tract of Wistar rat at 5 mg/kg, iv and po. Also on record: dose 5 mg/kg, route oral. The settings on record: in vivo, read-out: Drug uptake. The class given is ADME, organism-based.
The next data set relates to Plasmodium falciparum. As to the kind of experiment: Antimalarial activity against Plasmodium falciparum. The class given is functional, organism-based.
Data set [5] in a line: Inhibition of formyl-methionyl-leucyl-phenylalanine induced superoxide generation in PMNC. The class given is functional.
Data set [6] addresses Dual specificity calcium/calmodulin-dependent 3',5'-cyclic nucleotide phosphodiesterase 1A (Homo sapiens, UniProt P54750). As to the kind of experiment: Inhibition of calmodulin-dependent phosphodiesterase.
The target of data set [7] is Muscarinic acetylcholine receptor. As to the kind of experiment: Displacement of [3H]QNB from rat brain muscarinic receptor.
Data set [8] is described as follows: Inhibition of calmodulin-stimulated Ca2+/Mg2+ ATPase activity in human erythrocyte membrane. The class given is cell membranes.
Data set [9] can be described thus: Inhibition of phorbol myristate acetate-induced superoxide anion production in mouse peritoneal exudate cells at 50 ug/ml. The class given is functional.
A short description of data set [10]: Inhibition of phorbol myristate acetate-induced superoxide anion production in mouse peritoneal exudate cells at 5 ug/ml. The class given is functional.
For a further data set, the species on record is Mus musculus. As to the kind of experiment: Inhibition of 12-O-tetradecanoylphorbol-13-acetate-induced carcinogenic activity in mouse ear at 2 mg, applied locally. It counts as functional.
Data set [11] in a line: Toxicity in ip dosed rat. The class given is organism-based. The settings on record: in vivo.
The subject of a further data set is Homo sapiens. As to the kind of experiment: Increase in N-methyl-curine-induced neuromuscular blocking in patient during endotracheal intubation administered through inhalation. The class given is functional, organism-based.

Dual specificity calcium/calmodulin-dependent 3',5'-cyclic nucleotide phosphodiesterase 1A, sequence (P54750 whole entry): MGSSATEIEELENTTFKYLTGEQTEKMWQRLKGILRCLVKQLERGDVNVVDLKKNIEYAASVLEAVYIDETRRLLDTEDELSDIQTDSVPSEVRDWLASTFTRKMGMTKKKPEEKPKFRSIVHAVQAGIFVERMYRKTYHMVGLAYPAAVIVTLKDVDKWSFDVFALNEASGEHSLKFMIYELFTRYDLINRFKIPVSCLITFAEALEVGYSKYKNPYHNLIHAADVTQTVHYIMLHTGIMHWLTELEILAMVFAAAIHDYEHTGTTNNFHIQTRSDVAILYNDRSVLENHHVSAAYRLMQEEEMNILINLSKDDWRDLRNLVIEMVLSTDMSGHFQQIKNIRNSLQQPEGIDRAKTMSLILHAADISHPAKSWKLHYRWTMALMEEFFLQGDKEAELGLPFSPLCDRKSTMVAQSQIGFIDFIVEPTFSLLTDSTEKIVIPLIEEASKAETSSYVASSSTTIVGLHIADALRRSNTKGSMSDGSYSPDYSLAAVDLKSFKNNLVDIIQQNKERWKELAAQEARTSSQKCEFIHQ

Consider `COc1ccc2cc1Oc1ccc(cc1)C[C@H]1c3c(cc4c(c3Oc3cc5c(cc3OC)CCN(C)[C@@H]5C2)O[14CH2]O4)CCN1C`, for which the fraction unbound in data set [1] is 0.26. In addition, the half-life in data set [2] was 36 days; in [3] it was 8 days. Moreover, in data set [4], the Fa is 70%. Take `COc1cc2c3c4c1Oc1cc5c(cc1O4)[C@H](Cc1ccc(O)c(c1)Oc1ccc(cc1)C[C@@H]3N(C)CC2)N(C)CC5` [COCSULINE]: in the data set with Plasmodium falciparum, the IC50 amounted to 15.6 µg/mL (≈ 27.7 µM). For the compound `COc1cc2c3cc1Oc1c(OC)c(OC)cc4c1[C@@H](Cc1ccc(O)c(c1)Oc1ccc(cc1)C[C@@H]3N(C)CC2)N(C)CC4` [BERBAMINE], the “inhibition (INH)” value in data set [5] came to 56.4%. Further, the IC50 in data set [6] is 22 µM; in data set [8], 60 µM. In data set [7], this compound had a Ki of 1.9 ×10⁻⁷ M.

Regarding `COc1ccc2cc1Oc1ccc(cc1)C[C@H]1c3c(cc4c(c3Oc3cc5c(cc3OC)CCN(C)[C@@H]5C2)OCO4)CCN1C` [CEPHARANTHINE], the inhibition at 50 µg/mL in data set [9] was 85%. Moreover, testing at 5 µg/mL in data set [10] gave an inhibition of 34%. In addition, the “inhibition (INH)” value in the data set filed under Mus musculus was found to be 78%. On to `COc1cc2c3cc1Oc1c(OC)c(OC)cc4c1C(=NCC4)Cc1ccc(cc1)Oc1cc(ccc1O)CC3N(C)CC2` (stereo unspecified) [HYPOEPISTEPHANINE], for which the “inhibition (INH)” value in data set [5] stood at 34.1%. `COc1ccc2cc1Oc1ccc(cc1)C[C@@H]1c3cc(c(OC)cc3CCN1C)Oc1c(OC)c(OC)cc3c1[C@@H](C2)N(C)CC3` [PHAEANTHINE] returned an IC50 in the data set on Plasmodium falciparum of 1.43 µg/mL (≈ 2.3 µM). `COc1cc2c3cc1Oc1c4c(cc5c1[C@H](Cc1ccc(cc1)Oc1cc(ccc1O)C[C@H]3N(C)CC2)N(C)CC5)OCO4` [CEPHARANOLINE]: in data set [5], the “inhibition (INH)” value worked out at 56%. Turning to `COc1ccc2cc1Oc1ccc(cc1)C[C@H]1c3cc(c(OC)cc3CCN1C)Oc1c(O)c(OC)cc3c1[C@H](C2)N(C)CC3` [FANGCHINOLINE], in data set [5], the “inhibition (INH)” value amounted to 82.4%.

As to `COc1ccc2cc1Oc1ccc(cc1)C[C@H]1c3cc(c(OC)cc3CCN1C)Oc1c(OC)c(OC)cc3c1[C@H](C2)N(C)CC3` [FANCHININ], in data set [7], the Ki came out at 7.3 ×10⁻⁸ M. In data set [11], `COc1cc2c(cc1OC)[C@@H](Cc1ccc(Oc3cc(C[C@@H]4c5cc(OC)c(OC)cc5CCN4C)ccc3O)cc1)N(C)CC2` [DAURICINE] showed a 50% lethal dose (LD50) of 205 mg/kg. The “inhibition (INH)” value in data set [5] was determined as 50.8%. Take `COc1c2cc3c(c1OC)CCN(C)[C@@H]3Cc1ccc(cc1)Oc1cc3c(c(OC)c1OC)CCN(C)[C@@H]3Cc1ccc(cc1)O2` [CYCLEANINE]: the “inhibition (INH)” value in [5] was 36.2%. With `COc1cc2c3cc1Oc1c(OC)c(OC)cc4c1[C@H](Cc1ccc(cc1)Oc1cc(ccc1O)C[C@H]3N(C)CC2)N(C)CC4` [AROMOLINE], the “inhibition (INH)” value in [5] is given as 63.1%. The IC50 in the data set with Plasmodium falciparum stood at 0.67 µg/mL (≈ 1.1 µM).

Regarding `COc1ccc2cc1Oc1ccc(cc1)C[C@H]1c3c(cc(OC)c(O)c3Oc3cc4c(cc3OC)CCN(C)[C@@H]4C2)CCN1C` [HOMOAROMOLINE], the “inhibition (INH)” value in [5] is listed as 67%. Still for that read-out and setting: in the case of `COc1ccc(C[C@@H]2c3cc(Oc4cc(C[C@@H]5c6cc(OC)c(OC)cc6CCN5C)ccc4O)c(OC)cc3CCN2C)cc1` [NEFERINE] it was 63.6%. As to `CCOCCCCOc1ccc2cc1Oc1ccc(cc1)C[C@H]1c3cc(c(OC)cc3CCN1C)Oc1c(OC)c(OC)cc3c1[C@@H](C2)N(C)CC3`, the IC50 in [6] and in data set [8] was 0.35 µM throughout. As to `COc1cc2c3cc1Oc1c(OC)c(OC)cc4c1[C@@H](Cc1ccc(O)c(c1)Oc1ccc(cc1)C[C@H]3N(C)CC2)N(C)CC4` [PYCNAMINE], in the data set with Plasmodium falciparum, the IC50 worked out at 0.15 µg/mL (≈ 0.246 µM). Compound `COc1ccc2cc1Oc1ccc(cc1)CC1NCCc3cc(O)c4c(c31)Oc1c(OC)cc3c(c1O4)[C@H](C2)N(C)CC3` (stereo partly specified) displayed an IC50 in the data set on Plasmodium falciparum of 1.1 µg/mL (≈ 1.9 µM). As for `COc1ccc(C[C@@H]2c3cc(Oc4cc(C[C@@H]5c6cc(O)c(OC)cc6CCN5C)ccc4O)c(OC)cc3CCN2C)cc1` [ISOLIENSININE], in data set [5], the “inhibition (INH)” value is recorded as 59.6%. Take `COc1cc2c3cc1Oc1c(O)c(OC)cc4c1[C@@H](Cc1ccc(O)c(c1)Oc1ccc(cc1)C[C@@H]3N(C)CC2)N(C)CC4` [OBAMEGINE]: the IC50 with Plasmodium falciparum was found to be 0.51 µg/mL (≈ 0.858 µM). `FC(F)OC(F)(F)C(F)Cl` (stereo unspecified): the inhibition entry with Homo sapiens is “Dose-dependent effect”.
